From PubChem BioAssay AID330 (DTP/NCI, 2004)
Inconclusive results and toxic doses are left out. How the source made its calls: active means survival T/C of 150% or more; inactive means T/C below 125% in these data.

Test system: P388 leukemia ip, CD2F1 mice, survival T/C
Assay: NCI In Vivo Anticancer Drug Screen. Data for tumor model P388 Leukemia (intraperitoneal) in CD2F1 (CDF1) mice
Conditions: endpoint: median survival time, higher = longer survival
In short: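 Mice carrying the transplanted tumor received test compound or vehicle. Survival was recorded in each group, and the value is the treated-group measurement divided by that of the vehicle-treated control group.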

[1] = dose: 60.0 mg/kg/injection, schedule: Q01DX005 (ip), vehicle: saline with Tween-80
[2] = dose: 120.0 mg/kg/injection, schedule: Q01DX005 (ip), vehicle: saline with Tween-80
[3] = dose: 240.0 mg/kg/injection, schedule: Q01DX005 (ip), vehicle: saline with Tween-80
[4] = dose: 50.0 mg/kg/injection, schedule: Q01DX009 (ip), vehicle: saline with Tween-80
[5] = dose: 100.0 mg/kg/injection, schedule: Q01DX009 (ip), vehicle: saline with Tween-80
[6] = dose: 200.0 mg/kg/injection, schedule: Q01DX009 (ip), vehicle: saline with Tween-80
[7] = dose: 13.2 mg/kg/injection, schedule: Q04DX003 (ip), vehicle: saline with Tween-80
[8] = dose: 50.0 mg/kg/injection, schedule: Q01DX009 (ip), vehicle: Klucel (hydroxypropylcellulose) (HPC)
[9] = dose: 100.0 mg/kg/injection, schedule: Q01DX009 (ip), vehicle: Klucel (hydroxypropylcellulose) (HPC)
[10] = dose: 200.0 mg/kg/injection, schedule: Q01DX009 (ip), vehicle: Klucel (hydroxypropylcellulose) (HPC)
[11] = dose: 50.0 mg/kg/injection, schedule: Q01DX005 (ip), vehicle: saline with Tween-80
[12] = dose: 100.0 mg/kg/injection, schedule: Q01DX005 (ip), vehicle: saline with Tween-80

Measured: T/C

COC1C(/C=C2\CC(=O)N(c3ccccc3)C2=O)OC2OC(C)(C)OC21 (configuration not stated)
inactive: dose: 100.0 mg/kg/injection, schedule: Q01DX001 (ip), vehicle: suspension in saline 97 % of control | dose: 200.0 mg/kg/injection, schedule: Q01DX001 (ip), vehicle: suspension in saline 102 % of control | dose: 400.0 mg/kg/injection, schedule: Q01DX001 (ip), vehicle: suspension in saline 100 % of control

CSc1c(C)c(C)nn1-c1ccccc1
inactive: [1] 104 % of control | [2] 111 % of control | [3] 104 % of control

Cc1oc2ccccc2c(=O)c1C(=O)O
inactive: dose: 50.0 mg/kg/injection, schedule: Q01DX005 (ip), vehicle: Klucel (hydroxypropylcellulose) (HPC) 99 % of control | dose: 100.0 mg/kg/injection, schedule: Q01DX005 (ip), vehicle: Klucel (hydroxypropylcellulose) (HPC) 100 % of control | dose: 200.0 mg/kg/injection, schedule: Q01DX005 (ip), vehicle: Klucel (hydroxypropylcellulose) (HPC) 101 % of control

O=c1[nH]c(N[N+](=O)[O-])nc(-c2ccccc2)c1Br
inactive: [1] 98 % of control | [2] 100 % of control | [3] 99 % of control

CCC1(CN(C)C)C(=O)N(C)C(=O)N(C2CCCCC2)C1=O (configuration not stated)
inactive: [4] 96 % of control | [5] 102 % of control | [6] 107 % of control

CC(=O)Nc1ccc2nc(/C=C/c3ccc(N(C)C)cc3)c(=O)oc2c1
inactive: [1] 102 % of control | [2] 96 % of control | [3] 91 % of control

CN(C)P(=O)(N(C)C)N1CCCCCC1
inactive: [4] 102 % of control | [5] 106 % of control | [6] 94 % of control

COc1ccc2c(c1)C[N+](C)(CCc1ccccc1)[B-]O2 (configuration not stated)
inactive: dose: 50.0 mg/kg/injection, schedule: Q01DX005 (ip), vehicle: saline + Tween-80 + alcohol 91 % of control | dose: 100.0 mg/kg/injection, schedule: Q01DX005 (ip), vehicle: saline + Tween-80 + alcohol 93 % of control

COc1ccc2c(Nc3ccc(NS(C)(=O)=O)cc3)c3ccccc3nc2c1
inactive: dose: 0.07 mg/kg/injection, schedule: Q01DX009 (ip), vehicle: saline 99 % of control | dose: 0.1 mg/kg/injection, schedule: Q01DX009 (ip), vehicle: saline 113 % of control | dose: 0.15 mg/kg/injection, schedule: Q01DX009 (ip), vehicle: saline 116 % of control | dose: 0.23 mg/kg/injection, schedule: Q01DX009 (ip), vehicle: saline 122 % of control | dose: 1.1 mg/kg/injection, schedule: Q04DX003 (ip), vehicle: saline with Tween-80 119 % of control | dose: 18.7 mg/kg/injection, schedule: Q01DX009 (ip), vehicle: saline with Tween-80 97 % of control
active: dose: 2.5 mg/kg/injection, schedule: Q01DX009 (ip), vehicle: saline with Tween-80 164 % of control | dose: 5.0 mg/kg/injection, schedule: Q01DX009 (ip), vehicle: saline with Tween-80 194 % of control | dose: 9.38 mg/kg/injection, schedule: Q01DX009 (ip), vehicle: saline with Tween-80 218 % of control | dose: 10.0 mg/kg/injection, schedule: Q01DX009 (ip), vehicle: saline with Tween-80 270 % of control | [7] 163 % of control | dose: 20.0 mg/kg/injection, schedule: Q04DX003 (ip), vehicle: saline with Tween-80 168 % of control | dose: 22.0 mg/kg/injection, schedule: Q04DX003 (ip), vehicle: saline with Tween-80 175 % of control | dose: 30.0 mg/kg/injection, schedule: Q04DX003 (ip), vehicle: saline with Tween-80 200 % of control | dose: 33.0 mg/kg/injection, schedule: Q04DX003 (ip), vehicle: saline with Tween-80 204 % of control | dose: 50.0 mg/kg/injection, schedule: Q04DX003 (ip), vehicle: saline with Tween-80 216 % of control | dose: 75.0 mg/kg/injection, schedule: Q04DX003 (ip), vehicle: saline with Tween-80 237 % of control

CC1(C)COCN1COCCCOCN1COCC1(C)C
inactive: dose: 12.5 mg/kg/injection, schedule: Q01DX009 (ip), vehicle: saline with Tween-80 102 % of control | dose: 25.0 mg/kg/injection, schedule: Q01DX009 (ip), vehicle: saline with Tween-80 120 % of control | dose: 150.0 mg/kg/injection, schedule: Q01DX009 (ip), vehicle: saline with Tween-80 118 % of control

C(=C(Sc1ccccc1)Sc1ccccc1)C(Sc1ccccc1)c1ccccc1 (configuration not stated)
inactive: [8] 93 % of control | [9] 96 % of control | [10] 90 % of control

CS/C(=C/c1ccc2ccccc2[n+]1C)N1CCCCC1
inactive: dose: 0.78 mg/kg/injection, schedule: Q01DX005 (ip), vehicle: saline with Tween-80 109 % of control | dose: 1.56 mg/kg/injection, schedule: Q01DX005 (ip), vehicle: saline with Tween-80 116 % of control

Cc1oc(NC(=O)C(=O)O)c(C#N)c1C
inactive: [4] 88 % of control | [5] 102 % of control | [6] 88 % of control

CC(C)(C)C1=CC(N2CCOCC2)(C(C)(C)C)C=C(C(C)(C)C)C1=O
inactive: [11] 94 % of control | [12] 103 % of control | dose: 200.0 mg/kg/injection, schedule: Q01DX005 (ip), vehicle: saline with Tween-80 94 % of control

CCOC(=O)c1ccc(NC(=S)NC(=O)c2ccco2)o1
inactive: [4] 92 % of control | [5] 100 % of control | [6] 92 % of control

C=C(C)C1CNC(C(=O)O)C1CC(=O)O (configuration not stated)
inactive: dose: 6.25 mg/kg/injection, schedule: Q01DX009 (ip), vehicle: saline sonified 105 % of control | dose: 12.5 mg/kg/injection, schedule: Q01DX009 (ip), vehicle: saline sonified 90 % of control | dose: 25.0 mg/kg/injection, schedule: Q01DX009 (ip), vehicle: saline sonified 100 % of control

C=Cn1c([N+](=O)[O-])cnc1/C=C/c1ccc(C#N)cc1
inactive: dose: 100.0 mg/kg/injection, schedule: Q01DX001 (ip), vehicle: Klucel (hydroxypropylcellulose) (HPC) 94 % of control | dose: 200.0 mg/kg/injection, schedule: Q01DX001 (ip), vehicle: Klucel (hydroxypropylcellulose) (HPC) 96 % of control | dose: 400.0 mg/kg/injection, schedule: Q01DX001 (ip), vehicle: Klucel (hydroxypropylcellulose) (HPC) 93 % of control

CC(=O)NS(=O)(=O)c1ccc(N=Nc2c(O)n(-c3ccccc3)n(-c3ccccc3)c2=O)cc1
inactive: [8] 88 % of control | [9] 101 % of control | [10] 109 % of control

CCN(CC)CCNC1CC2CCC1(C)C2(C)C (configuration not stated)
inactive: dose: 25.0 mg/kg/injection, schedule: Q01DX005 (ip), vehicle: saline with Tween-80 98 % of control | [11] 91 % of control | [12] 89 % of control

CCN(CC)c1csc2c3ccccc3nc(C)[n+]12
inactive: dose: 100.0 mg/kg/injection, schedule: Q04DX003 (ip), vehicle: saline + Tween-80 + alcohol 104 % of control | dose: 200.0 mg/kg/injection, schedule: Q04DX003 (ip), vehicle: saline + Tween-80 + alcohol 94 % of control | dose: 400.0 mg/kg/injection, schedule: Q04DX003 (ip), vehicle: saline + Tween-80 + alcohol 105 % of control

CN1c2ccccc2C2=C(C(=O)CCS2)S1(=O)=O
inactive: dose: 50.0 mg/kg/injection, schedule: Q01DX005 (ip), vehicle: saline 109 % of control | dose: 100.0 mg/kg/injection, schedule: Q01DX005 (ip), vehicle: saline 100 % of control | dose: 200.0 mg/kg/injection, schedule: Q01DX005 (ip), vehicle: saline 101 % of control

CN=C(NN(C)C)c1ccc(NC(=O)c2ccc(C(=O)Nc3ccc(C(=NC)NN(C)C)cc3)cc2)cc1
inactive: dose: 3.3 mg/kg/injection, schedule: Q01DX009 (ip), vehicle: saline with Tween-80 115 % of control | dose: 4.3 mg/kg/injection, schedule: Q01DX009 (ip), vehicle: saline with Tween-80 118 % of control | [7] 91 % of control

CN1C(c2ccccc2)=C(C#N)C(=O)CC(c2ccco2)N1C (configuration not stated)
inactive: [1] 98 % of control | [2] 92 % of control | [3] 89 % of control

CCOC(=O)C(CCCCC(NC(C)=O)(C(=O)OCC)C(=O)OCC)(NC(C)=O)C(=O)OCC
inactive: dose: 100.0 mg/kg/injection, schedule: Q04DX003 (ip), vehicle: saline with Tween-80 100 % of control | dose: 200.0 mg/kg/injection, schedule: Q04DX003 (ip), vehicle: saline with Tween-80 100 % of control | dose: 400.0 mg/kg/injection, schedule: Q04DX003 (ip), vehicle: saline with Tween-80 95 % of control

COc1ccc(C(=O)NC[n+]2ccccc2)cc1
inactive: dose: 25.0 mg/kg/injection, schedule: Q04DX003 (ip), vehicle: saline 100 % of control | dose: 50.0 mg/kg/injection, schedule: Q04DX003 (ip), vehicle: saline 100 % of control | dose: 100.0 mg/kg/injection, schedule: Q04DX003 (ip), vehicle: saline 104 % of control
